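Cells were grown in 96-well plates and exposed to each compound for 48 hours at five concentrations; endpoints were interpolated linearly between bracketing concentrations, or set to the highest concentration if not reached. GI50 is the concentration that inhibits growth by half. The concentration for full growth arrest is given as TGI.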 Some results are limits rather than exact numbers.

Among the test systems are 786-0 renal; A498 renal; HT29 colon; NCI-H460 lung; RPMI-8226 leukemia; SF-539 CNS; UACC-257 melanoma; UACC-62 melanoma; SK-MEL-28 melanoma.
Assay in all cases: NCI tumour cell line growth inhibition, 48 h

As for `O=C(c1ccccc1)N1C2CCC1C(C(F)(F)F)=C2C(F)(F)F`, the TGI in the experiment on 786-0 renal, in the experiment on A498 renal, in the experiment on HT29 colon, with NCI-H460 lung, in the experiment with RPMI-8226 leukemia and with SF-539 CNS was more than 100 µM throughout. For the same compound, the TGI with UACC-257 melanoma and in the experiment on UACC-62 melanoma was more than 100 µM in each case.
`NS(=O)(=O)c1ccc(NC2=CC(=O)C(=O)c3ccccc32)cc1`: the TGI in the experiment on 786-0 renal, in the experiment with A498 renal, in the experiment on HT29 colon, in the experiment on NCI-H460 lung, in the experiment with RPMI-8226 leukemia and with SF-539 CNS was more than 100 µM each time. Also, the TGI in the experiment with SK-MEL-28 melanoma, with UACC-257 melanoma and in the experiment with UACC-62 melanoma was more than 100 µM throughout.
As for `COc1c(C(=O)c2ccc([N+](=O)[O-])cc2)cc(C(C)(C)C)cc1C(C)(C)C`, the TGI is more than 100 µM in the experiment on 786-0 renal; more than 100 µM in the experiment with A498 renal; 88 µM in the experiment on HT29 colon; more than 100 µM with NCI-H460 lung; 31.7 µM with RPMI-8226 leukemia; more than 100 µM with SF-539 CNS. For the same compound, the TGI in the experiment with SK-MEL-28 melanoma was 72.8 µM; in the experiment with UACC-257 melanoma it was 59.3 µM; with UACC-62 melanoma, 36.2 µM.
On to `CC1CC(=O)Nc2ccccc2N1C(=O)CN1CCC(CCCCN(C)C)CC1` (stereo not given), for which the TGI with 786-0 renal, in the experiment on A498 renal, in the experiment on HT29 colon, in the experiment on NCI-H460 lung, with RPMI-8226 leukemia and in the experiment with SF-539 CNS was more than 100 µM each time. The TGI in the experiment on SK-MEL-28 melanoma, in the experiment with UACC-257 melanoma and in the experiment on UACC-62 melanoma was more than 100 µM in each case.
`O=C1CCC2CC(C(=O)c3ccccc3)CCC2CN1` (stereo not given) (tested in a mixture with another compound): the TGI in the experiment with 786-0 renal, in the experiment with HT29 colon, in the experiment on NCI-H460 lung, with RPMI-8226 leukemia, in the experiment with SF-539 CNS and with SK-MEL-28 melanoma was more than 100 µM each time. Besides, the TGI with UACC-257 melanoma and in the experiment with UACC-62 melanoma was more than 100 µM each time.
For the compound `CC1C[C@H](C)CC(C(O)CC2CC(=O)N(Cc3ccccc3)C(=O)C2)C1O` (stereo not given in full), the TGI in the experiment with 786-0 renal, in the experiment with A498 renal, in the experiment with HT29 colon, with NCI-H460 lung, in the experiment on RPMI-8226 leukemia and in the experiment with SF-539 CNS was more than 100 µM throughout. Moreover, the TGI in the experiment with SK-MEL-28 melanoma, with UACC-257 melanoma and in the experiment on UACC-62 melanoma was more than 100 µM in each case.
Take `CCCCCCCCOCC(O)COC(=O)CCCCCCC` (stereo not given): the TGI with 786-0 renal, with A498 renal, in the experiment with HT29 colon, in the experiment with NCI-H460 lung, in the experiment with RPMI-8226 leukemia and in the experiment on SK-MEL-28 melanoma was more than 100 µM throughout. Moreover, the TGI in the experiment with UACC-257 melanoma and in the experiment on UACC-62 melanoma was more than 100 µM throughout.
Consider `CCOC(=O)CSC(=O)NCCCl`, for which the TGI in the experiment on 786-0 renal, with A498 renal, in the experiment with HT29 colon, in the experiment on NCI-H460 lung, with RPMI-8226 leukemia and in the experiment with SF-539 CNS was more than 100 µM in each case. The TGI in the experiment on SK-MEL-28 melanoma, with UACC-257 melanoma and in the experiment on UACC-62 melanoma was more than 100 µM each time. Also, the GI50 in the experiment with RPMI-8226 leukemia is more than 100 µM.
Regarding `COC(=O)/C=C(\C(=O)OC)c1c2c3c(cc(OC)c(OC)c3c3ccccc13)CCN2C`, the TGI in the experiment on 786-0 renal is more than 100 µM; with HT29 colon, more than 100 µM; in the experiment with NCI-H460 lung, more than 100 µM; with RPMI-8226 leukemia, more than 100 µM; with SF-539 CNS it was 75.4 µM; in the experiment on SK-MEL-28 melanoma, more than 100 µM. Moreover, the TGI in the experiment with UACC-257 melanoma was 89.7 µM; with UACC-62 melanoma, more than 100 µM.
`O=C1Nc2c(C(F)(F)F)cccc2[C@@]1(c1ccc(O)cc1)c1ccc(OC(F)(F)F)cc1`: the GI50 in the experiment on 786-0 renal was 0.0265 µM; in the experiment with A498 renal, less than 0.0148 µM; in the experiment with HT29 colon it was 0.0177 µM; with NCI-H460 lung, 4.19 µM; in the experiment on RPMI-8226 leukemia, 8.99 µM; in the experiment on SF-539 CNS it was 0.0161 µM. Further, the GI50 in the experiment on SK-MEL-28 melanoma was 13.3 µM; in the experiment with UACC-257 melanoma, 0.938 µM; with UACC-62 melanoma, 0.0213 µM. Also, the TGI amounted to 1.21 µM with 786-0 renal; 0.0337 µM with A498 renal; 0.0435 µM with HT29 colon; 19.7 µM in the experiment with NCI-H460 lung; 50.8 µM in the experiment with RPMI-8226 leukemia; 0.0446 µM with SF-539 CNS. Also, the TGI in the experiment on SK-MEL-28 melanoma stood at 27.7 µM; with UACC-257 melanoma it was 20.1 µM; in the experiment with UACC-62 melanoma, 0.071 µM.
`COc1ccc(C2CC(c3cc(C)ccc3O)=NC(N)=N2)cc1` (stereo not given): the TGI with 786-0 renal, with A498 renal, in the experiment with HT29 colon, in the experiment with NCI-H460 lung, in the experiment on RPMI-8226 leukemia and with SF-539 CNS was more than 100 µM each time. Moreover, the TGI in the experiment with SK-MEL-28 melanoma, with UACC-257 melanoma and in the experiment with UACC-62 melanoma was more than 100 µM in each case.
Turning to `CC1COc2c(N3CCN(C)CC3)c(F)cc3c(=O)c(C(=O)O)cn1c23` (stereo not given), the GI50 in the experiment with 786-0 renal, in the experiment on A498 renal, in the experiment with HT29 colon, in the experiment with NCI-H460 lung, with RPMI-8226 leukemia and in the experiment with SF-539 CNS was more than 100 µM in each case. Moreover, the GI50 in the experiment with SK-MEL-28 melanoma, with UACC-257 melanoma and in the experiment with UACC-62 melanoma was more than 100 µM each time. The TGI in the experiment on 786-0 renal, in the experiment on A498 renal, with HT29 colon, in the experiment with NCI-H460 lung, in the experiment with RPMI-8226 leukemia and in the experiment with SF-539 CNS was more than 100 µM in each case. Also, the TGI in the experiment with SK-MEL-28 melanoma, in the experiment on UACC-257 melanoma and with UACC-62 melanoma was more than 100 µM each time.
For `O=C(c1ccccc1)[C@H]1Nc2ccc(Cl)cc2C2c3ccccc3CC21` (stereo not given in full), the TGI in the experiment with 786-0 renal is more than 100 µM; in the experiment on HT29 colon it was more than 100 µM; with NCI-H460 lung, more than 100 µM; with RPMI-8226 leukemia, more than 100 µM; in the experiment on SF-539 CNS, more than 100 µM; with SK-MEL-28 melanoma, 97 µM. The same compound showed a TGI in the experiment with UACC-257 melanoma of 85.9 µM.
In the case of `CC(=O)c1ccc(OCC(O)CO)cc1` (stereo not given), the TGI with 786-0 renal was 76.2 µM; in the experiment on A498 renal, more than 100 µM; with HT29 colon it was more than 100 µM; with NCI-H460 lung, more than 100 µM; with RPMI-8226 leukemia it was more than 100 µM; in the experiment with SF-539 CNS, more than 100 µM. Besides, the TGI in the experiment with SK-MEL-28 melanoma, in the experiment with UACC-257 melanoma and in the experiment with UACC-62 melanoma was more than 100 µM each time.
For `OCC(O)C(O)C(O)c1nn(-c2ccc(Cl)cc2)c2nc3cc(Cl)c(Cl)cc3nc12` (stereo not given), the TGI in the experiment on 786-0 renal, in the experiment on HT29 colon, in the experiment on NCI-H460 lung, with RPMI-8226 leukemia, in the experiment with SF-539 CNS and with SK-MEL-28 melanoma was more than 100 µM each time. Further, the TGI in the experiment with UACC-257 melanoma and with UACC-62 melanoma was more than 100 µM in each case.
In the case of `CC(/C(=N\Nc1ccccc1)c1ccc(O)cc1)C1C(=O)Oc2ccccc21` (stereo not given), the TGI in the experiment on 786-0 renal, in the experiment on A498 renal, in the experiment on HT29 colon, in the experiment on NCI-H460 lung, with RPMI-8226 leukemia and in the experiment with SF-539 CNS was more than 100 µM each time. The TGI in the experiment on UACC-257 melanoma and in the experiment with UACC-62 melanoma was more than 100 µM in each case.
For the compound `CCOC(=O)C1C2CCC(C2)C1(CCl)C(=O)OCC` (stereo not given), the TGI in the experiment on 786-0 renal, with A498 renal, with HT29 colon, in the experiment on NCI-H460 lung, in the experiment with RPMI-8226 leukemia and in the experiment on SK-MEL-28 melanoma was more than 100 µM throughout. Besides, the TGI in the experiment on UACC-257 melanoma and in the experiment with UACC-62 melanoma was more than 100 µM throughout.
Regarding `Cc1cccc2c1N(C(=O)/C=C\C(=O)O)C(c1c(C)[nH]c3ccccc13)C2` (stereo not given), the TGI in the experiment on 786-0 renal is more than 100 µM; in the experiment on A498 renal, more than 100 µM; in the experiment with HT29 colon, more than 100 µM; in the experiment with NCI-H460 lung, more than 100 µM; in the experiment with RPMI-8226 leukemia, more than 100 µM; in the experiment with SK-MEL-28 melanoma, 53.3 µM. Moreover, the TGI in the experiment with UACC-257 melanoma was more than 100 µM; with UACC-62 melanoma, 41.8 µM.
Regarding `COC(=O)/C(=N\Nc1nc(=S)[nH]n1N)C(C#N)c1ccccc1` (stereo not given), the TGI in the experiment on 786-0 renal, in the experiment with A498 renal, with HT29 colon, in the experiment on NCI-H460 lung, in the experiment on RPMI-8226 leukemia and with SK-MEL-28 melanoma was more than 100 µM each time. Also, the TGI in the experiment on UACC-257 melanoma and in the experiment with UACC-62 melanoma was more than 100 µM in each case.
Turning to `CC(=O)Nc1cc(N(CCOS(C)(=O)=O)CCOS(C)(=O)=O)ccc1N=O`, the TGI in the experiment on 786-0 renal, in the experiment on HT29 colon, with NCI-H460 lung, with RPMI-8226 leukemia, in the experiment on SF-539 CNS and with SK-MEL-28 melanoma was more than 100 µM in each case. The TGI with UACC-257 melanoma and in the experiment on UACC-62 melanoma was more than 100 µM in each case.
`O=C(O)C[C@H]1CCCCC12CCOC2=O` (stereo not given in full): the TGI with 786-0 renal, in the experiment with HT29 colon, with NCI-H460 lung, in the experiment on RPMI-8226 leukemia, with SF-539 CNS and in the experiment on SK-MEL-28 melanoma was more than 100 µM in each case. Besides, the TGI in the experiment on UACC-257 melanoma and in the experiment on UACC-62 melanoma was more than 100 µM throughout.
